Structures are written as SMILES. Starred links: 1 amine or outer side, 2 acyl side, 3 side chain; linkers in the order of their positions; H or OH if unused. Positions of bridges follow the written chain, without caps; N, C: chain ends. Non-standard residues stand in square brackets, D forms with d. Residues, ends and D or L forms follow the SMILES beside them. ξ: configuration not given here. *: point of attachment. Arg(Nω,Nω'-propylene) = N[C@@H](CCCNC1=NCCCN1)C(=O)O; Orn(2-imidazolinyl) = N[C@@H](CCCNC1=NCCN1)C(=O)O; dαMeDab = C[C@](CCN[*:3])(N[*:1])C(=O)[*:2]; Arg(Me2a) = CN(C)C(=N)NCCC[C@H](N)C(=O)O; Arg(ω-nPr) = CCCNC(=N)NCCC[C@H](N)C(=O)O; dPhg(2-OMe) = COc1ccccc1[C@@H](N)C(=O)O; Arg(Me2s) = CN=C(NC)NCCC[C@H](N)C(=O)O; dPhe(3-F) = N[C@H](Cc1cccc(F)c1)C(=O)O; dGly(cPent) = N[C@@H](C(=O)O)C1CCCC1; dCha = N[C@H](CC1CCCCC1)C(=O)O; dPhg = N[C@@H](C(=O)O)c1ccccc1; ξhPhe = NC(CCc1ccccc1)C(=O)O; Pyridin(2-yl) = c1ccc(*)nc1; 2Pyrimidinyl = c1cnc(*)nc1; Isobutyryl = CC(C)C(=O)*; Orn = NCCC[C@H](N)C(=O)O; Ac5c = NC1(C(=O)O)CCCC1; Abu = CC[C@H](N)C(=O)O; Dap = NC[C@H](N)C(=O)O; ξOrn = NCCCC(N)C(=O)O; ClAc = O=C(CCl)*

Our source for the IC50 values is US20210130401A1, “PEPTIDOMIMETIC INHIBITORS OF THE WDR5-MLL INTERACTION” (THE REGENTS OF THE UNIVERSITY OF MICHIGAN, priority 2017, published 2021).

For one assay, the system named is MOLM-13 leukemia cells carrying MLL-AF9 fusion. The assay can be described thus: cell viability assay (WST-8), MOLM-13. As to conditions: Homo sapiens, MOLM-13, 96 h, read-out: MOLM-13 IC50 (μM). It counts as cell-based.
Description: To assess cell viability, MOLM-13 leukemia cells carrying MLL-AF9 fusion, MV4;11 leukemia cells carrying MLL-AF4 fusion or HL-60 leukemia cells carrying no MLL fusion were seeded 1×10^4 cell/well in 96-well plates and treated with an inhibitor for 4 days at different concentrations, in culture media containing 0.2% DMSO as the final concentration. Cell viability was determined using the WST-8 cell proliferation assay kit (Dojindo Molecular Technologies) according to manufacturer's instructions. Three independent experiments in triplicates were performed.
With `CC[C@@H]1NC(=O)[C@H](CCCNC(N)NC)NC(=O)[C@](C)(NC(=O)C(C)C)CCNC(=O)[C@@H](CC2CCCCC2)NC1=O` (stereo partly drawn) [Cpd. No. 87, N-((3R,6S,9S,12R)-9-(3-((amino(methylamino)methyl)amino)propyl)-3-(cyclohexylmethyl)-6-ethyl-12-methyl-2,5,8,11-tetraoxo-1,4,7,10-tetraazacyclotetradecan-12-yl)isobutyramide], the IC50 amounted to 0.46 µM. For the molecule `CC[C@@H]1NC(=O)[C@H](CCCNC(=N)N)NC(=O)[C@](C)(NC(=O)C(C)C)CCNC(=O)[C@@H](C2CCCC2)NC1=O` [Cpd. No. 50, N-((3R,6S,9S,12R)-3-cyclopentyl-6-ethyl-9-(3-guanidinopropyl)-12-methyl-2,5,8,11-tetraoxo-1,4,7,10-tetraazacyclotetradecan-12-yl)isobutyramide] (Isobutyryl-[dαMeDab]R[Abu][dGly(cPent)]; lactam 1-C), the IC50 amounted to 1.19 µM. Consider `CC[C@@H]1NC(=O)[C@H](CCCNC(=N)N)NC(=O)[C@](C)(NC(=O)C(C)C)CCNC(=O)[C@@H](Cc2cccc(F)c2)NC1=O` [Cpd. No. 56, N-((3R,6S,9S,12R)-6-ethyl-3-(3-fluorobenzyl)-9-(3-guanidinopropyl)-12-methyl-2,5,8,11-tetraoxo-1,4,7,10-tetraazacyclotetradecan-12-yl)isobutyramide] (Isobutyryl-[dαMeDab]R[Abu][dPhe(3-F)]; lactam 1-C), for which the IC50 came out at 1.29 µM. Regarding `CCCNC(=N)NCCC[C@@H]1NC(=O)[C@](C)(NC(=O)C(C)C)CCNC(=O)[C@@H](CC2CCCCC2)NC(=O)[C@H](CC)NC1=O` [Cpd. No. 46, N-((3R,6S,9S,12R)-3-(cyclohexylmethyl)-6-ethyl-12-methyl-2,5,8,11-tetraoxo-9-(3-(3-propylguanidino)propyl)-1,4,7,10-tetraazacyclotetradecan-12-yl)isobutyramide] (Isobutyryl-[dαMeDab][Arg(ω-nPr)][Abu][dCha]; lactam 1-C), the IC50 is greater than 10 µM. On to `CC[C@@H]1NC(=O)[C@H](CCCNC2=NCC(C)(C)CN2)NC(=O)[C@](C)(NC(=O)C(C)C)CCNC(=O)[C@@H](CC2CCCCC2)NC1=O` [Cpd. No. 96, N-((3R,6S,9S,12R)-3-(cyclohexylmethyl)-9-(3-((5,5-dimethyl-1,4,5,6-tetrahydxopyrimidin-2-yl)amino)propyl)-6-ethyl-12-methyl-2,5,8,11-tetraoxo-1,4,7,10-tetraazacyclotetradecan-12-yl)isobutyramide], for which the IC50 is greater than 10 µM. As for `CC[C@@H]1NC(=O)[C@H](CCCNC2=NCCCN2)NC(=O)[C@](C)(NC(=O)C(C)C)CCNC(=O)[C@@H](CC2CCCCC2)NC1=O` [Cpd. No. 40, N-((3R,6S,9S,12R)-3-(cyclohexylmethyl)-6-ethyl-12-methyl-2,5,8,11-tetraoxo-9-(3-((1,4,5,6-tetrahydropyrimidin-2-yl)amino)propyl)-1,4,7,10-tetraazacyclotetradecan-12-yl)isobutyramide] (Isobutyryl-[dαMeDab][Arg(Nω,Nω'-propylene)][Abu][dCha]; lactam 1-C), the IC50 worked out at 0.88 µM. As to `CC[C@@H]1NC(=O)[C@H](CCCNC2=NCCN2)NC(=O)[C@](C)(NC(=O)C(C)C)CCNC(=O)[C@@H](CC2CCCCC2)NC1=O` [Cpd. No. 30, N-((3R,6S,9S,12R)-3-(cyclohexylmethyl)-9-(3-((4,5-dihydro-1H-imidazol-2-yl)amino)propyl)-6-ethyl-12-methyl-2,5,8,11-tetraoxo-1,4,7,10-tetraazacyclotetradecan-12-yl)isobutyramide] (Isobutyryl-[dαMeDab][Orn(2-imidazolinyl)][Abu][dCha]; lactam 1-C), the 50% inhibitory concentration (IC50) was 0.67 µM. Consider `CC(C)C(=O)N[C@]1(C)CCNC(=O)[C@@H](c2ccccc2)NC(=O)C2(CCCC2)NC(=O)[C@H](CCCNC(=N)N)NC1=O` [Cpd. No. 86, N-((8S,11R,16R)-8-(3-guanidinopropyl)-11-methyl-7,10,15,18-tetraoxo-16-phenyl-6,9,14,17-tetraazaspiro[4.13]octadecan-11-yl)isobutyramide] (Isobutyryl-[dαMeDab]R[Ac5c][dPhg]; lactam 1-C), for which the IC50 is greater than 10 µM. The same measure, in the same setting: next, `CC[C@@H]1NC(=O)[C@H](CCCNc2ncccn2)NC(=O)[C@](C)(NC(=O)C(C)C)CCNC(=O)[C@@H](c2ccccc2)NC1=O` [Cpd. No. 21, N-((3R,6S,12R)-6-ethyl-12-methyl-2,5,8,11-tetraoxo-3-phenyl-9-(3-(pyrimidin-2-ylamino)propyl)-1,4,7,10-tetraazacyclotetradecan-12-yl)isobutyramide] (Isobutyryl-[dαMeDab][Orn](2Pyrimidinyl)[Abu][dPhg]; lactam 1-C): greater than 10 µM; `CC[C@@H]1NC(=O)[C@H](CCCNC(=N)NC(=N)N)NC(=O)[C@](C)(NC(=O)C(C)C)CCNC(=O)[C@@H](CC2CCCCC2)NC1=O` [Cpd. No. 35, N-((3R,6S,9S,12R)-9-(3-(3-carbamimidoylguanidino)propyl)-3-(cyclohexylmethyl)-6-ethyl-12-methyl-2,5,8,11-tetraoxo-1,4,7,10-tetraazacyclotetradecan-12-yl)isobutyramide]: greater than 10 µM; `CC[C@@H]1NC(=O)[C@H](CCCN/C(=N/C)NC)NC(=O)[C@](C)(NC(=O)C(C)C)CCNC(=O)[C@@H](CC2CCCCC2)NC1=O` [Cpd. No. 31, N-((3R,6S,9S,12R)-3-(cyclohexylmethyl)-9-(3-((E)-2,3-dimethylguanidino)propyl)-6-ethyl-12-methyl-2,5,8,11-tetraoxo-1,4,7,10-tetraazacyclotetradecan-12-yl)isobutyramide] (Isobutyryl-[dαMeDab][Arg(Me2s)][Abu][dCha]; lactam 1-C): greater than 10 µM. Still for that read-out and setting: as for `CC[C@@H]1NC(=O)[C@H](CCCNC(=N)N)NC(=O)[C@](C)(NC(=O)C(C)C)CCNC(=O)[C@@H](c2ccccc2OC)NC1=O` [Cpd. No. 99, N-((3R,6S,9S,12R)-6-ethyl-9-(3-guanidinopropyl)-3-(2-methoxyphenyl)-12-methyl-2,5,8,11-tetraoxo-1,4,7,10-tetraazacyclotetradecan-12-yl)isobutyramide] (Isobutyryl-[dαMeDab]R[Abu][dPhg(2-OMe)]; lactam 1-C), the figure is 1.6 µM; as for `CC[C@@H]1NC(=O)[C@H](CNc2ccccn2)NC(=O)[C@](C)(NC(=O)C(C)C)CCNC(=O)[C@@H](c2ccccc2)NC1=O` [Cpd. No. 10, N-((3R,6S,9S,12R)-6-ethyl-12-methyl-2,5,8,11-tetraoxo-3-phenyl-9-((pyridin-2-ylamino)methyl)-1,4,7,10-tetraazacyclotetradecan-12-yl)isobutyramide] (Isobutyryl-[dαMeDab][Dap](Pyridin(2-yl))[Abu][dPhg]; lactam 1-C), greater than 10 µM; as for `CC[C@@H]1NC(=O)[C@H](CCCNC2=NCC(F)(F)CN2)NC(=O)[C@](C)(NC(=O)C(C)C)CCNC(=O)[C@@H](CC2CCCCC2)NC1=O` [Cpd. No. 95, N-((3R,6S,9S,12R)-3-(cyclohexylmethyl)-9-(3-((5,5-difluoro-1,4,5,6-tetrahydropyrimidin-2-yl)amino)propyl)-6-ethyl-12-methyl-2,5,8,11-tetraoxo-1,4,7,10-tetraazacyclotetradecan-12-yl)isobutyramide], greater than 10 µM. In the case of `CC[C@@H]1NC(=O)[C@H](CCCNC2=NCC(C)CN2)NC(=O)[C@](C)(NC(=O)C(C)C)CCNC(=O)[C@@H](CC2CCCCC2)NC1=O` (stereo partly drawn) [Cpd. No. 97, N-((3R,6S,9S,12R)-3-(cyclohexylmethyl)-6-ethyl-12-methyl-9-(3-((5-methyl-1,4,5,6-tetrahydropyrimidin-2-yl)amino)propyl)-2,5,8,11-tetraoxo-1,4,7,10-tetraazacyclotetradecan-12-yl)isobutyramide], the half-inhibitory concentration (IC50) was greater than 10 µM. As to `CC[C@@H]1NC(=O)[C@H](CCCNC(=N)N(C)C)NC(=O)[C@](C)(NC(=O)C(C)C)CCNC(=O)[C@@H](CC2CCCCC2)NC1=O` [Cpd. No. 36, N-((3R,6S,9S,12R)-3-(cyclohexylmethyl)-9-(3-(3,3-dimethylguanidino)propyl)-6-ethyl-12-methyl-2,5,8,11-tetraoxo-1,4,7,10-tetraazacyclotetradecan-12-yl)isobutyramide] (Isobutyryl-[dαMeDab][Arg(Me2a)][Abu][dCha]; lactam 1-C), the IC50 was greater than 10 µM. For `CC[C@@H]1NC(=O)C(CCc2ccccc2)NC(=O)[C@](C)(NC(=O)C(C)C)CCNC(=O)[C@@H](c2ccccc2)NC1=O` (stereo partly drawn) [Cpd. No. 13, N-((3R,6S,12R)-6-ethyl-12-methyl-2,5,8,11-tetraoxo-9-phenethyl-3-phenyl-1,4,7,10-tetraazacyclotetradecan-12-yl)isobutyramide] (Isobutyryl-[dαMeDab][ξhPhe][Abu][dPhg]; lactam 1-C), the IC50 was greater than 10 µM.

Staying with this assay, now noted: Homo sapiens, MOLM-13, 96 h; Table 2A; 4 days treatment; read-out: MOLM-13 IC50.
For `CC[C@@H]1NC(=O)C(CCCNC(=O)CCl)NC(=O)[C@](C)(NC(=O)C(C)C)CCNC(=O)[C@@H](c2ccccc2)NC1=O` (stereo partly drawn) [Cpd. No. 25, N-((3R,6S,12R)-9-(3-(2-chloroacetamido)propyl)-6-ethyl-12-methyl-2,5,8,11-tetraoxo-3-phenyl-1,4,7,10-tetraazacyclotetradecan-12-yl)isobutyramide] (Isobutyryl-[dαMeDab][ξOrn](ClAc)[Abu][dPhg]; lactam 1-C), the IC50 was greater than 10 µM. With `CC[C@@H]1NC(=O)[C@H](CCCNC(=N)N)NC(=O)[C@](C)(NC(=O)C(C)C)CCNC(=O)[C@@H](CC(C)C)NC1=O` [Cpd. No. 49, N-((3R,6S,9S,12R)-6-ethyl-9-(3-guanidinopropyl)-3-isobutyl-12-methyl-2,5,8,11-tetraoxo-1,4,7,10-tetraazacyclotetradecan-12-yl)isobutyramide] (Isobutyryl-[dαMeDab]R[Abu][dL]; lactam 1-C), the IC50 is 1.88 µM. Regarding `CC[C@@H]1NC(=O)[C@H](CCCNC(=N)N)NC(=O)[C@](C)(NC(=O)C(C)C)CCNC(=O)[C@@H](Cc2ccccc2)NC1=O` [Cpd. No. 54, N-((3R,6S,9S,12R)-3-benzyl-6-ethyl-9-(3-guanidinopropyl)-12-methyl-2,5,8,11-tetraoxo-1,4,7,10-tetraazacyclotetradecan-12-yl)isobutyramide] (Isobutyryl-[dαMeDab]R[Abu][dF]; lactam 1-C), the IC50 was 1.57 µM.

For orientation: IC50 means the concentration needed to halve the response being measured.
